In general, pIC50 refers to the negative decadic logarithm of the IC50, by convention in mol/L. Lower therefore signals a high IC50.

pIC50: −log10 of the molar value.

This is an account of results in US11306098B2, “Substituted pyrrolo[1,2-a]pyrazines and pyrrolo[1,2-a][1,4]diazepines as TREX1 inhibitors” (VENENUM BIODESIGN, LLC, priority 2019, dated 2022).

One assay addresses murine TREX1 (Mus musculus (Mouse), UniProt Q91XB0). As to the kind of experiment: TREX1 Exonuclease Assay (murine enzyme). It is filed as biochemical. Particulars: murine TREX1 1 nM, FAM/BHQ1-labeled DNA oligonucleotide. In short, it runs like this:
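Human TREX1 (aa 55-297, 0.5 nM) or murine TREX1 (aa 1-242, 1 nM) preincubated 30 min with compound (11-point, 3-fold), then 500 nM FAM/BHQ1-quenched DNA oligo added; 45 min at room temperature in pH 7.5 Tris buffer with 5 mM MgCl2, EDTA-stopped. Fluorescence (ex 485/em 535 nm) fit to four-parameter curve for IC50.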

In assay [1] the test system is THP1 Dual cells (ISRE Lucia reporter, cGAS-STING pathway). As to the kind of experiment: THP1 monocyte assay, ISRE Lucia luciferase reporter. It is filed as cell-based, human. The settings on record: 48 hours, luciferase signal versus control wells without compound. From the text:
Example C is a cell-based assay for TREX1 inhibitors using THP1 Dual™ cells (Invivogen), a human monocyte cell line that has stable integration of an Interferon Stimulated Response Element (ISRE) Lucia reporter gene. The Lucia gene encodes a secreted luciferase reporter protein, under the control of an ISG54 minimal promoter in conjunction with five IFN-stimulated response elements. Activation of the cGAS-STING pathway in THP1 Dual™ cells leads to enhanced luciferase secretion and increased luminescence.
A cell-based assay was established using THP1 Dual™ cells (Invivogen), a human monocyte cell line that has stable integration of an Interferon Stimulated Response Element (ISRE) Lucia reporter gene. The Lucia gene encodes a secreted luciferase reporter protein, under the control of an ISG54 minimal promoter in conjunction with five IFN-stimulated response elements. Activation of the cGAS-STING pathway in these cells leads to enhanced luciferase secretion. The assay was conducted in standard 384-well white tissue culture plates. Cells (25,000 in 25 μL RPMI 1640 containing 10% Heat-Inactivated FBS, 1× Glutagro, 10 mM HEPES, 1 mM sodium pyruvate, 1× Pen/Strep, 100 μg/mL Normocin, 100 μg/mL Zeocin, 10 μg/mL Blasticidin) were added to the plate followed by 25 μL of compound in the same media+0.2% DMSO. The assay was incubated for 48 hours at 37° C. in 5% CO2. An aliquot of 5 μl was removed to combine with 12.5 μL of the luciferase detection reagent, QUANTI-Luc™ Gold (Invivogen) in a white 384-well plate. The luminescent signal was then read using an EnVision plate reader (Perkin Elmer). The fold activation was calculated by dividing the signal in wells containing test compound by the signal in the control wells without compound (see Table 7).

Assay [2] concerns interferon stimulated genes (ISGs) in THP1 Dual cells. As to the kind of experiment: RT-qPCR assay of interferon stimulated gene expression. It is filed as cell-based, human. The settings on record: substance alone, 24 hours, normalized to GAPDH, unstimulated control = 1. From the text:
Example D is a cell based assay that measures the increase in the expression of interferon stimulated genes (ISG) by RT-qPCR that are induced by TREX1 inhibitors when THP1 Dual™ cells are transfected with double-stranded DNA. The double stranded DNA used to transfect cells was VACV-70 (Invivogen), a 70 base pair oligonucleotide containing viral DNA motifs (Unterholzner L. et al., 2010. IFI16 is an innate immune sensor for intracellular DNA. Nat Immunol. 11(11):997-1004). Activation of cGAS-STING pathway in THP1 Dual™ cells increases the expression of ISGs.
The RT-qPCR assay was used to assess the ability of TREX1 inhibitors to enhance the expression of interferon stimulated genes (ISGs) in cells transfected with double-stranded DNA. The double stranded DNA used to transfect cells was VACV-70 (Invivogen), a 70 base pair oligonucleotide containing viral DNA motifs (Unterholzner L. et al., 2010. IFI16 is an innate immune sensor for intracellular DNA. Nat Immunol. 11(11):997-1004). Human THP1 Dual™ cells (Invivogen), were treated with test compound in the presence or absence of 1,200 ng/mL VACV-70, or with VACV-70 alone, for 24 hours. Cells were harvested by centrifugation and washed with phosphate buffer saline. Total RNA was isolated using Qiagen RNeasy mini kit. Genomic DNA was degraded using Thermo Scientific DNase 1 kit. Total RNA was quantified using a Nanodrop spectrophotometer. Using equal amounts of RNA, cDNA was synthesized using Invitrogen Superstrand III First Strand synthesis kit. Target and reference gene expression levels were determined by RT-qPCR using TaqMan gene expression assays and a Stratagene Mx3005P QPCR system (all reagents were from TaqMan, Applied Biosystems). Data were analyzed by the Comparative CT method. GAPDH was used for normalization. Target genes that were analyzed included interferon stimulated genes (INF-β, CXCL10, IFIT1, IFIT2, IFIT3, IFI44, and IFI44L).
A general note: In qPCR the cycle at which signal appears reflects the starting amount.

murine TREX1, sequence (Q91XB0 1-242): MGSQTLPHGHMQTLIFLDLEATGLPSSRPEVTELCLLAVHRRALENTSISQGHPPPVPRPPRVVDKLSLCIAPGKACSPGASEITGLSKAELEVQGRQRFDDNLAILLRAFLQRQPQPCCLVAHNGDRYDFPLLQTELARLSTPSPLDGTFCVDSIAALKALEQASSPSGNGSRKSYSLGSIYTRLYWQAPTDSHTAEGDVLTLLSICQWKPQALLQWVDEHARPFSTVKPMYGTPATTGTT

In turn, `N[C@@H]1C[C@H]2C(=O)N([C@H](CCC(=O)O)C(=O)NCc3ccc(Cl)c(Cl)c3)CCC(CCc3ccccc3)N2C1` (stereo partly drawn) [Example 14B] gave a negative logarithm of the IC50 (pIC50) on murine TREX1 above 6.00. Further, the “Fold activation @ 10 μM” value in assay [1] is listed as 12. Also, in assay [2], the CXCL10 expression was 2, the IFI44L expression is listed as 65, the IFI44 expression amounted to 54 and the IFIT1 expression is recorded as 19. Moreover, in assay [2], the IFIT2 expression was determined as 44, the IFIT3 expression is 25 and the IFN-β expression is recorded as 7.
